Source: patent US20100249121A1, “USE OF TETRAMIC ACID DERIVATIVES FOR C[…]-TR[…]” (priority 2007, published 2010)

Key:
Assay type in all cases: in vivo
[1] = test system: Bean Golden Mosaic Virus (BGMV), virus-transferring vector Bemisia argentifolii; assay: Example 3: field plots of bush beans treated against the vector, virus infestation scored; conditions: 72 g of a.i./ha, 200 SC, three applications at 7-day intervals, 16 days after the first treatment, BGMV on bush beans
Method: In three replications, plots of a size of 12 m^2 with bush beans of the cultivar “Carioca” are treated against the virus-transferring vector Bemisia argentifolii. Application is carried out using a pressurized air-operated knapsack sprayer. The active compound example (I-2) (240 SC) in a tank mix with 0.186% a.i. soya oil Natur'L Oleo (OL 930) and the commercial standard imidacloprid (200 SC) are applied at the stated application rates. Three applications are carried out at intervals of in each case 7 days. The water application rate is in each case 300 l/ha.
Evaluation is carried out 16 days after the first treatment by scoring the virus infestation with the Bean Golden Mosaic Virus (BGMV) on the plants.
All 10 plants in the control were infected by the BGMV.

[2] = test system: Tomato Yellow Leaf Curl Virus (TYLCV), virus-transferring vector Bemisia argentifolii; assay: Example 1: field plots of tomatoes treated against the vector, virus infestation scored; conditions: 72 g of a.i./ha, 200 SC, four applications at 7-day intervals, 25 days after the 4th treatment, TYLCV on tomatoes
Method: In three replications, plots of a size of 7.5 m^2 with tomatoes of the cultivar “Jumbo” are treated against the virus-transferring vector Bemisia argentifolii. Application is carried out using a motor-operated knapsack sprayer. The active compound example (I-2) (240 SC) in a tank mix with 0.186% a.i. soya oil Natur'L Oleo (OL 930) and the commercial standard imidacloprid (200 SC) are applied at the stated application rates. Four applications are carried out at intervals of in each case 7 days using a water application rate of in each case 300 l, 300 l, 500 l and 600 l/ha.
Evaluation is carried out 25 days after the 4th treatment by scoring the virus infestation with the Tomato Yellow Leaf Curl Virus (TYLCV) on the plants.
In the control, 11.7 of 15 plants were infected by the TYLCV.

[3] = test system: Tomato Spotted Wilt Virus (TSWV); assay: Example 4: field plots of tomatoes, tank mix versus single actives, virus infection scored; conditions: 72 g of a.i./ha, SC 200 on its own, four applications at 7-day intervals, 25 days after the treatment
From the text: The expected activity for a given combination of two active compounds can be calculated according to S. R. Colby, Weeds 15 (1967), 20-22 as follows:
If • X is the degree of control, expressed in % of the untreated control, when using the active compound A at an application rate of m g/ha or in a concentration of m ppm, • Y is the degree of control, expressed in % of the untreated control, when using the active compound B at an application rate of n g/ha or in a concentration of n ppm and • E is the degree of control, expressed in % of the untreated control, when using the active compounds A and B at application rates of m and n g/ha or in a concentration of m and n ppm, then
If the actual degree of control is greater than the calculated degree of control, the control of the combination is superadditive, i.e. a synergistic effect is present. In this case, the degree of control actually observed must be greater than the value for the expected kill rate (E) calculated using the formula given above.
After the desired period of time, the control in % is determined. 100% means that no plants have been infected by viruses; 0% means that all plants have been infected by viruses.
In three replications, plots of a size of 7.5 m^2 with tomatoes of the cultivar “Jumbo” are treated against the virus-transferring vector Bemisia argentifolii using a compressed air-operated sprayer. […]

[4] = test system: Tomato Yellow Leaf Curl Virus (TYLCV), virus-transferring vector Bemisia argentifolii; assay: Example 2: field plots of tomatoes treated against the vector, virus infestation scored; conditions: 72 g of a.i./ha, 200 SC, three applications at 7-day intervals, 14 days after the 3rd treatment, TYLCV on tomatoes
Method: In three replications, plots of a size of 7.5 m^2 with tomatoes of the cultivar “Jumbo” are treated against the virus-transferring vector Bemisia argentifolii. Application is carried out using a pressurized air-operated knapsack sprayer. The active compound example (I-2) (240 SC) in a tank mix with 0.186% a.i. soya oil Natur'L Oleo (OL 930) and the commercial standard imidacloprid (200 SC) are applied at the stated application rates. Three applications are carried out at intervals of in each case 7 days. The water application rates are 300 l/ha, 400 l/ha and 600 l/ha.
Evaluation is carried out 14 days after the 3rd treatment by scoring the virus infestation with the Tomato Yellow Leaf Curl Virus (TYLCV) on the plants.
All 18 plants in the control were infected by the TYLCV.

SMILES: O=[N+]([O-])/N=C1\NCCN1Cc1ccc(Cl)nc1 [imidacloprid]
- Degree of control according to Abbott (%) 16 d [1]: 60.0%
- Degree of control according to Abbott (%) 25 d [2]: 40.0%
- Degree of control according to Abbott (%) 25 d [3]: 80%
- Degree of control according to Abbott (%) 14 d [4]: 33%
